{"source": "patent US20070259439A1", "about": "“Determination of antibiotic concentration in bone” (Wyeth, priority 2006, published 2007)", "assay": "Antibiotic bone assay (LC/MS/MS): tigecycline concentration in incurred rat bone", "format": "in vivo", "settings": "for concentration at 4 h: rat, femoral bone (pooled, ground), 3 mg/kg", "protocol": "Incurred rat bone was harvested and prepared from rats administered an antibiotic. Two different groups of incurred rat bone were prepared. Group A (n=12) represented bone from rats administered a single dose of tigecycline and Group B (n=19) represented bone from rats administered multiple doses of tigecycline. Group A rats were intravenously administered a single dose of tigecycline at 3 mg/kg. At 4 hours post-dose, the rats were euthanized and the femoral bones were harvested. Group B rats were intravenously administered 3 mg/kg of ^14C-tigecycline, once daily, for 3 days. At 4 hours post-dose, on day 3, the rats were euthanized and the femoral bones were harvested.\nPreparation of incurred rat bone sample: To prepare the bone for extraction, two femoral bones from each rat in each group were collected. Femoral bones were cleaned with a saline solution to remove blood and bone marrow. The bones were air-dried and combined to form two pooled samples of incurred rat bone, Group A and Group B. The femoral rat bone pools were ground for approximately 2 minutes in an industrial blender to produce bone particles <1 mm in diameter. The ground, pooled bone sample for each group was stored at −70° C. for later analysis.\nIncurred rat bone (IncRB) QC sample: Approximately 0.1 g of IncRB (Group A), which was stored at −70° and thawed, was weighed and dissolved in 1.0 ml of the extraction solvent to create a mixture of bone and solvent. Then, 50 μl of extraction solvent were added to match the volume of working standard solutions added to RBCtrl calibrators or QC samples. For IncHB QC sample, the procedure is similar to rat bone except for using a human incurred bone sample and adding L-ascorbic acid solution prior to adding extraction solvent.\nApproximately 100 mg of prepared IncRB and RBCtrl samples (or human control bone or incurred human bone) were accurately weighed and placed into 17×100 mm polypropylene tubes. One hundred twenty μL of stabilizing agent (100 mM ascorbic acid) was added to human bone samples (For the rat bone assay, it was proven that autosampler stability was improved by adding ascorbic acid). One ml of extraction solvent, 50 μl of each tigecycline working standard solution (or 50 μl of methanol for study samples) and 40 μl of working internal standard solution (5000 ng/ml [t-butyl-d9]-tigecycline in methanol) were added to each tube. All sample tubes were vortexed for about 60 seconds. A tissue homogenizing probe was introduced into the mixture (small particles of prepared bone samples in extraction solvent) to further break up the bone particles. The homogenizing probe was operated at a setting of 4 to 5 (˜10,000 rpm) for about 2 minutes until bone particles in the mixture became a cloudy, white homogenous suspension. The probe was removed from the suspension and cleaned between each sample preparation by immersion in 2 ml of water, operating for 30 to 60 seconds, immersion in 2 ml of methanol, operating for 30 to 60 seconds, and wiping dry. Each sample tube containing bone suspension was centrifuged at 3000 rpm, at room temperature, for about 5 minutes. The supernatant (200 μl) was removed and transferred to a 250-μl conical low volume polypropylene autosampler vial and recentrifuged for another 5 minutes before loading into the HPLC autosampler. A 20 μl aliquot of the supernatant was injected onto the LC/MS/MS for tigecycline determination.\nLiquid chromatography separation procedures were carried out on a 50×2.0 mm (I.D., 3 μm) HPLC analytical column with a pre-column in-line solvent filer (2.0 μm PEEK filter) and a LC/MS switching valve. PEEK tubing ( 1/16 in.×0.005 in.) connected the separation module, analytical column, LC/MS switching valve, and mass spectrometer. The separation module included a refrigerated autosampler, an in-line degasser, and a quaternary solvent delivery system. The analytical column temperature was approximately 20° C.; autosampler temperature was maintained at 4° C. […]", "note": "Values joined by “and” are separate entries in the source; they are usually repeats but may differ in a detail not shown here. Identical values can stand only once. Like-named read-outs stand apart in the source and are kept apart here. Marks after values point to notes of the source that are not given here."}
{"compound": "CN(C)c1cc(NC(=O)CNC(C)(C)C)c(O)c2c1C[C@H]1C[C@H]3[C@H](N(C)C)C(O)=C(C(N)=O)C(=O)[C@@]3(O)C(O)=C1C2=O", "note": "[tigecycline, Tigecycline]", "values": [{"measurement": "Tigecycline concentration in pooled incurred rat bone, Mean ± SD", "setting": "Group A, single i.v. dose 3 mg/kg, Day 1, 4 hour, femoral bone pool of 12 rats, 5 replicates", "result": "1048 ± 88^b ng/g"}, {"measurement": "Tigecycline concentration in pooled incurred rat bone, Mean ± SD", "setting": "Group B, multiple dose 3 mg/kg i.v. 14C-tigecycline once daily for 3 days, Day 3, 4 hour, pool of 19 rats, 5 replicates", "result": "3192 ng/g and 3192 ± 93^b ng/g"}, {"measurement": "concentration at 4 h", "setting": "intravenous, Group A, single dose 3 mg/kg, Day 1, 4 hour, measured concentration divided by 0.771, read-out: Corrected Mean Conc. in rat bone", "result": 1360, "unit": "ng/g"}, {"measurement": "concentration at 4 h", "setting": "intravenous, Group B, multiple dose 3 mg/kg 14C-tigecycline, Day 3, 4 hour, measured concentration divided by 0.771, read-out: Corrected Mean Conc. in rat bone", "result": 4140, "unit": "ng/g"}, {"measurement": "concentration at 4 h", "setting": "intravenous, IncRB Group B extract used for the bioassay, read-out: Concentration of tigecycline in extracted rat bone sample as determined by LC/MS", "result": 3400, "unit": "ng/g"}, {"measurement": "concentration at 4 h", "setting": "iv, Group A, single i.v. dose 3 mg/kg, Day 1, 4 hour, femoral bone pool of 12 rats, 5 replicates, read-out: Tigecycline concentration in pooled incurred rat bone, Mean ± SD", "result": 1050, "unit": "ng/g"}, {"measurement": "IncRB QC sample concentration (incurred rat bone Group A)", "setting": "single i.v. 3 mg/kg, 4 hours post-dose, nominal value = mean of 3-day global inter-day validation (n = 15)", "result": "987 ng/g and 987^a ng/g"}]}
